Experiment [1] addresses T1, Voltage-gated N-type calcium channel alpha-1B subunit/Amyloid beta A4 precursor protein-binding family A member 1 (Homo sapiens, UniProt Q00975+Q02410). It counts as protein assay.
Experiment [2] deals with T1, Voltage-gated N-type calcium channel alpha-1B subunit/Amyloid beta A4 precursor protein-binding family A member 1. It counts as protein assay. This is another data set of the same source.
Experiment [3] has as its target T2, Low molecular weight phosphotyrosine protein phosphatase (Homo sapiens, UniProt P24666).
T2 sequence (P24666 whole entry): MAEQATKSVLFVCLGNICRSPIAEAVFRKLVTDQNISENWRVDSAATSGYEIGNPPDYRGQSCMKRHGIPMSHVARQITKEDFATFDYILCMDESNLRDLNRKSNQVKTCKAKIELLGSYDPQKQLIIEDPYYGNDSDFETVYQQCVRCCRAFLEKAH
The class given is functional. The note with it: read-out: IC50_Mean.

In experiment [4] the target is T2, Low molecular weight phosphotyrosine protein phosphatase. The class given is functional. The settings on record: read-out: IC50_Mean. This is another data set of the same source.
Experiment [5] in a line: Luminescence Cell-Based Dose Retest to Confirm Inhibitors of Cancer Stem Cells. [Related pubchem assays (depositor defined):AID2717, AID2721]. The class given is functional. The note with it: Homo sapiens.
Experiment [6] deals with T3, Microphthalmia-associated transcription factor (Homo sapiens, UniProt O75030).
T3 sequence (O75030 whole entry): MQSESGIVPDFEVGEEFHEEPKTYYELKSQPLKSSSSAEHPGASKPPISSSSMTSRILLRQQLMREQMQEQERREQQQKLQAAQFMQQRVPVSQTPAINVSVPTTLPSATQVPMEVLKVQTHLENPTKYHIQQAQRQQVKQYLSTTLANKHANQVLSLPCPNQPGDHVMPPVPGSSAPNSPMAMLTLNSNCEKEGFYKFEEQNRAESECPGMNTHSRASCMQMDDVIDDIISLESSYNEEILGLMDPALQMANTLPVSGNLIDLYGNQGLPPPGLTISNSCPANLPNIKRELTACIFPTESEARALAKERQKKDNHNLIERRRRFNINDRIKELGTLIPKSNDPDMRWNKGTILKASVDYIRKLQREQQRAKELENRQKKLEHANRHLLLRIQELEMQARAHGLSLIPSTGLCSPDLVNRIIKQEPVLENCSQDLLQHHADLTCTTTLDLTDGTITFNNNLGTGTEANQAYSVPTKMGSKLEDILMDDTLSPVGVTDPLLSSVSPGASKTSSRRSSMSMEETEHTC
The experiment is described as follows: TRPM1 promoter luciferase signal decrease, dose response, MITF inhibitor project, cell-based, SK-MEL-5, cherry-picked, set 3 (AID 493073).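 Further: SK-MEL-5 melanoma cells with luciferase driven by the MITF target TRPM1 promoter.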 The class given is functional.

The nature of experiment [7]: Fluorescence-based cell-based high throughput dose response assay for inhibitors of the interaction of nucleotide-binding oligomerization domain containing 2 (NOD2) and the receptor-interacting serine-threonine kinase 2 (RIPK2). The settings on record: Homo sapiens. The class given is functional.
For experiment [8], the target named is T4, Carboxy-terminal domain RNA polymerase II polypeptide A small phosphatase 1 (Homo sapiens, UniProt Q9GZU7).
T4 sequence (Q9GZU7 whole entry): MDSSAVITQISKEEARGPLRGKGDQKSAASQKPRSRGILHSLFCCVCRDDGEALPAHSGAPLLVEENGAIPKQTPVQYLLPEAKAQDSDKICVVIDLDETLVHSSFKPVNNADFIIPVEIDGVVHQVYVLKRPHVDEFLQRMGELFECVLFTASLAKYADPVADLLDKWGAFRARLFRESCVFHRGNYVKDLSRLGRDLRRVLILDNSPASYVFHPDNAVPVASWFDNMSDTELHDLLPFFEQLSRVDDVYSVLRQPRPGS
In words: inhibitors of CTDSP1, concentration-response testing, biochemical assay, absorbance-based, actives from ultra-high-throughput screening (AID 540297). It counts as functional.

The target of experiment [9] is T5, Small ubiquitin-related modifier 1 (Homo sapiens, UniProt P63165). The experiment is described as follows: inhibitors of SUMO1 peptide binding, dose response, biochemical, fluorescence polarization, uHTS hits (AID 624382). The class given is functional. The settings on record: read-out: IC50_Mean.
T5 sequence (P63165 whole entry): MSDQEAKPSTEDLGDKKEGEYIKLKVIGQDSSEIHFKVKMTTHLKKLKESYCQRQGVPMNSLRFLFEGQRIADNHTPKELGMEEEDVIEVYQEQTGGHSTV
Experiment [10] concerns the target T5, Small ubiquitin-related modifier 1. The experiment is described as follows: inhibitors of SUMO1 partner interactions, dose response, biochemical, FRET (AID 624383). It counts as functional. The settings on record: read-out: IC50_Mean.
Experiment [11] deals with INS1. The experiment is described as follows: beta cell apoptosis inhibitors, cytokine rescue, dose response, luminescence, retest (AID 449756).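 Further: cell death triggered by IL-1 beta plus TNF-alpha plus IFN-gamma mixture; protective hits raise ATP signal compared with cytokine alone wells.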 It counts as functional, cell-based. The settings on record: Rattus norvegicus.
Experiment [12] is described as follows: HeLa cell cytotoxicity, dose response, cytotoxicity control for MgcRacGAP inhibitor project (AID 624300). The class given is functional.
The target of experiment [13] is T6, Rac GTPase-activating protein 1 (Homo sapiens, UniProt Q9H0H5).
T6 sequence (Q9H0H5 whole entry): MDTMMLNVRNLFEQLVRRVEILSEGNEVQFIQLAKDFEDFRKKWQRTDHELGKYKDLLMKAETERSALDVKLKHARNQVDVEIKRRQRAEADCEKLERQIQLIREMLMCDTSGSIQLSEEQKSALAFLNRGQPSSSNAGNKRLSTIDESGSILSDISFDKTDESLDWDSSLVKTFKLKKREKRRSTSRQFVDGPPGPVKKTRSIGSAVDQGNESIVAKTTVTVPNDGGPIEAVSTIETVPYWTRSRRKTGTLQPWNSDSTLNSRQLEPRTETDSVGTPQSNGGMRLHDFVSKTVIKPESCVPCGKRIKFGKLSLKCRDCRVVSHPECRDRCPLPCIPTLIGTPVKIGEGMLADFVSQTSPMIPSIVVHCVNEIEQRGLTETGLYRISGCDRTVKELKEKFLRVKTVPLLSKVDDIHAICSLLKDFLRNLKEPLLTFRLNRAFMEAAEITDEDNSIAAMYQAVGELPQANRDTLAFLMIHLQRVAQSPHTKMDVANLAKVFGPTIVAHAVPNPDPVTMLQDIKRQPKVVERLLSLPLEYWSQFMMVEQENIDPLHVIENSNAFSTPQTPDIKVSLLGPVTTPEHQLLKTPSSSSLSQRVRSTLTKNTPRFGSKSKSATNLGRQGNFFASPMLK
In words: MgcRacGAP GTPase-activating activity inhibitors, confirmation, biochemical, ADP Hunter fluorescence, primary and confirmatory (AID 624330). It counts as functional.

Experiment [14] addresses T7, Tyrosine-protein phosphatase non-receptor type 11 (Homo sapiens, UniProt Q06124).
T7 sequence (Q06124 whole entry): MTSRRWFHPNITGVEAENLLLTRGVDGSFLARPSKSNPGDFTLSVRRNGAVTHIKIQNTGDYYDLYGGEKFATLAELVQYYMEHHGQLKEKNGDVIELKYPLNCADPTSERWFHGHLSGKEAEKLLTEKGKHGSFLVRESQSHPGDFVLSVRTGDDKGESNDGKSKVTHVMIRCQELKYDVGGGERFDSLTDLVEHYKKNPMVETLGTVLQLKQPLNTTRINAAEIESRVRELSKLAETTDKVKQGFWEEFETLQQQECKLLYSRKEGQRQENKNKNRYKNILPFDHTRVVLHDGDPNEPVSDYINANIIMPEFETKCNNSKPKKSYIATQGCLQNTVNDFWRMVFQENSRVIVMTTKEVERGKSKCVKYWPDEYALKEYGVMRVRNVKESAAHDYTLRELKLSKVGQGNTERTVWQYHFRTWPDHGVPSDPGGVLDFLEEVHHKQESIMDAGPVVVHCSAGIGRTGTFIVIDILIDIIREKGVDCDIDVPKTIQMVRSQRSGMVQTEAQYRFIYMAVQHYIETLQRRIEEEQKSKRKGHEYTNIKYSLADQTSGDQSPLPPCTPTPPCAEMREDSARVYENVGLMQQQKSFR
The experiment is described as follows: SHP2 phosphatase inhibition, dose response, selectivity assay for STEP inhibitor project, biochemical (AID 602367). The settings on record: read-out: IC50_Mean. It counts as functional.

Experiment [15] concerns the target T8, Tyrosine-protein phosphatase non-receptor type 5 (Homo sapiens, UniProt P54829).
T8 sequence (P54829 whole entry): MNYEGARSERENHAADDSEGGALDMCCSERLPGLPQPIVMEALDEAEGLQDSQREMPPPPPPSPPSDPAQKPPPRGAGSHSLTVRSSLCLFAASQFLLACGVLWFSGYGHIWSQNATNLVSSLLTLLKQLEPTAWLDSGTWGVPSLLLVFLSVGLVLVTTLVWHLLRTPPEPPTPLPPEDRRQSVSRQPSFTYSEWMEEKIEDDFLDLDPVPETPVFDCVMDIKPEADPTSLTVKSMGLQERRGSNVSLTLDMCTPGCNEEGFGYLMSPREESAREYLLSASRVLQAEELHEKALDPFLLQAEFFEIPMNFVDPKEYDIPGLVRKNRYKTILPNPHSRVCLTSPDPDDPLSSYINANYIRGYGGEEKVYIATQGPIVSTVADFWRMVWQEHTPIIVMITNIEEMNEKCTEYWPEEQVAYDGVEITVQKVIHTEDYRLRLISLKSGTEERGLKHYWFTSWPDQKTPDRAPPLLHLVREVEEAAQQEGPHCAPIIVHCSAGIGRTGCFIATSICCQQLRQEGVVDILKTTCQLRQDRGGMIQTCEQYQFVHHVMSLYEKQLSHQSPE
The experiment is described as follows: STEP phosphatase inhibitors, confirmation, biochemical, fluorescence intensity, uHTS hits (AID 602372). It counts as functional. The settings on record: read-out: IC50_Mean.

The target in experiment [16] is Dual specificity protein phosphatase 3 (Homo sapiens, UniProt P51452). The experiment is described as follows: VHR phosphatase inhibition, dose response, selectivity assay for STEP inhibitor project, biochemical (AID 602374). The settings on record: read-out: IC50_Mean. The class given is functional.
Sequence of Dual specificity protein phosphatase 3 (P51452 whole entry): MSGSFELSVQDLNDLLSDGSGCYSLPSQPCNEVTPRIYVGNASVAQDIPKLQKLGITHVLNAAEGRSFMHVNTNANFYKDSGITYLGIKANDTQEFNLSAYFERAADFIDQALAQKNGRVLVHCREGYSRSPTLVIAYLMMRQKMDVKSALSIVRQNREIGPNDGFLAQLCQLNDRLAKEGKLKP
The nature of experiment [17]: THP-1 cell cytotoxicity, dose response, cytotoxicity control for Vif-APOBEC3G degradation inhibitor project, THP-1 cells (AID 1117359). It counts as functional. The note with it: Human immunodeficiency virus 1, THP-1.
A short description of experiment [18]: miR-122 activators in hepatoma reporter cells, dose response, cell-based, Huh7 psiCHECK-miR122, Renilla luciferase, cherry-picked (AID 651956).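 Further: huh7 hepatoma cells stably carrying a psiCHECK-2 miR-122 sensor plasmid; renilla luciferase signal reporting endogenous miR-122 activity after 48 h compound exposure.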 The class given is functional.

Consider 8 molecules from ChEMBL document CHEMBL1201862, “PubChem BioAssay data set” (2004).

Activity calls are given as the source filed them.

T1 sequence (Q00975 whole entry): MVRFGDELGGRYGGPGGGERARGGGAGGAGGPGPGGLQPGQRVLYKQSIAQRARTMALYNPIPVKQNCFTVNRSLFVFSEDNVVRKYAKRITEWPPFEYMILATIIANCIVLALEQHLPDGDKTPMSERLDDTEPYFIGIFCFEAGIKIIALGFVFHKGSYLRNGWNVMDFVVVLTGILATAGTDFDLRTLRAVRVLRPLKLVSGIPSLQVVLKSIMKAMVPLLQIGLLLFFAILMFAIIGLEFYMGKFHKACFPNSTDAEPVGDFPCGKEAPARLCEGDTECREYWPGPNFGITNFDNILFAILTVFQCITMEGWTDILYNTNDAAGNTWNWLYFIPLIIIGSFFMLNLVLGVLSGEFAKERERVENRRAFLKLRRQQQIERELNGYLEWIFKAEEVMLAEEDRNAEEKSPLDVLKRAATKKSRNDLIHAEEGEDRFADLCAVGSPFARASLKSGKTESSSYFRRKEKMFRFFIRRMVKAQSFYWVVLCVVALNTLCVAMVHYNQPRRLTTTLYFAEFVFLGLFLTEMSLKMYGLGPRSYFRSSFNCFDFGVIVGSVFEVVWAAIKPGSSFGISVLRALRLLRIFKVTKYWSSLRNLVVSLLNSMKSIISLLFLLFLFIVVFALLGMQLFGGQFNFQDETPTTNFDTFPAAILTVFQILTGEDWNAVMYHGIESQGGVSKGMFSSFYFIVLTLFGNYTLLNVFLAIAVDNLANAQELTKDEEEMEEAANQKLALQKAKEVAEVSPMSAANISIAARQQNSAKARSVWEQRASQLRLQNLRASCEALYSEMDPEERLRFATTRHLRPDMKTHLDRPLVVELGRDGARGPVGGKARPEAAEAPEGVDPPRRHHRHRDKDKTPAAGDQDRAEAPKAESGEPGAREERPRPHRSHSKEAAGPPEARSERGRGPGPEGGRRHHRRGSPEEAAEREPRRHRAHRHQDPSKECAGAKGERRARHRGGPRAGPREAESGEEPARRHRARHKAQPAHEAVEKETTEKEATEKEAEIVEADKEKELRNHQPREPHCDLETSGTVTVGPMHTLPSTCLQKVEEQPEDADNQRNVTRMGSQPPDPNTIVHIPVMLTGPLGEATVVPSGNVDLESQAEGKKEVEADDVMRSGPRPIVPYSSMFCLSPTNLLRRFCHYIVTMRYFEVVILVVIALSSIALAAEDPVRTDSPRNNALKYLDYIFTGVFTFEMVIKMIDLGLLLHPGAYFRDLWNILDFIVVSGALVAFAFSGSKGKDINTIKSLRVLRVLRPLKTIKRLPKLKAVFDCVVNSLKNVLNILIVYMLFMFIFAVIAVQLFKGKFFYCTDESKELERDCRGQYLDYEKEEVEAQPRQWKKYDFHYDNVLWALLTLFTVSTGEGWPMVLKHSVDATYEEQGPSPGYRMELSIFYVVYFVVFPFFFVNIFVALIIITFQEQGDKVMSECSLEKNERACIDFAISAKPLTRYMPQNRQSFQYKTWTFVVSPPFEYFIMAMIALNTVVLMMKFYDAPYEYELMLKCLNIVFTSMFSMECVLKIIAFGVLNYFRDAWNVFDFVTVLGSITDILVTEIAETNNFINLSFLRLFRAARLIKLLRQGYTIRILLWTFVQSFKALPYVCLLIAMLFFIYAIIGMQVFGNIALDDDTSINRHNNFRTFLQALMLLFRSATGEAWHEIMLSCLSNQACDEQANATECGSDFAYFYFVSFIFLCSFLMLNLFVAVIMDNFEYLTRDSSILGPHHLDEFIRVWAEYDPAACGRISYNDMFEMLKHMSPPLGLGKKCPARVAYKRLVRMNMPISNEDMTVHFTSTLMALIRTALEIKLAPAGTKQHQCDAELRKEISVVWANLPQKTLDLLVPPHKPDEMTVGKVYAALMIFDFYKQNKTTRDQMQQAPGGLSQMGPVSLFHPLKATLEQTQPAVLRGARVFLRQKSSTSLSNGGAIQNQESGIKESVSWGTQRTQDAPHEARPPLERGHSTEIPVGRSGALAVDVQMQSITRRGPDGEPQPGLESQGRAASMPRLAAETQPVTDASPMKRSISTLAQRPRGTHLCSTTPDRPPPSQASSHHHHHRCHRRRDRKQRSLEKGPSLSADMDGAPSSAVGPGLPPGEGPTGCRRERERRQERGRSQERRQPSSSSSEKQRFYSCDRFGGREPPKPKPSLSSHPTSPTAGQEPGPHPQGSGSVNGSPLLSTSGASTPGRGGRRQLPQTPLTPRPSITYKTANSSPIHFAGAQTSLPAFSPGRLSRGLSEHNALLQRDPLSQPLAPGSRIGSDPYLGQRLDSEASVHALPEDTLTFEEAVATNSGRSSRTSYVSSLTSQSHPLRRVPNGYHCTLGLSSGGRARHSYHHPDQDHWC
T1 sequence (Q02410 whole entry): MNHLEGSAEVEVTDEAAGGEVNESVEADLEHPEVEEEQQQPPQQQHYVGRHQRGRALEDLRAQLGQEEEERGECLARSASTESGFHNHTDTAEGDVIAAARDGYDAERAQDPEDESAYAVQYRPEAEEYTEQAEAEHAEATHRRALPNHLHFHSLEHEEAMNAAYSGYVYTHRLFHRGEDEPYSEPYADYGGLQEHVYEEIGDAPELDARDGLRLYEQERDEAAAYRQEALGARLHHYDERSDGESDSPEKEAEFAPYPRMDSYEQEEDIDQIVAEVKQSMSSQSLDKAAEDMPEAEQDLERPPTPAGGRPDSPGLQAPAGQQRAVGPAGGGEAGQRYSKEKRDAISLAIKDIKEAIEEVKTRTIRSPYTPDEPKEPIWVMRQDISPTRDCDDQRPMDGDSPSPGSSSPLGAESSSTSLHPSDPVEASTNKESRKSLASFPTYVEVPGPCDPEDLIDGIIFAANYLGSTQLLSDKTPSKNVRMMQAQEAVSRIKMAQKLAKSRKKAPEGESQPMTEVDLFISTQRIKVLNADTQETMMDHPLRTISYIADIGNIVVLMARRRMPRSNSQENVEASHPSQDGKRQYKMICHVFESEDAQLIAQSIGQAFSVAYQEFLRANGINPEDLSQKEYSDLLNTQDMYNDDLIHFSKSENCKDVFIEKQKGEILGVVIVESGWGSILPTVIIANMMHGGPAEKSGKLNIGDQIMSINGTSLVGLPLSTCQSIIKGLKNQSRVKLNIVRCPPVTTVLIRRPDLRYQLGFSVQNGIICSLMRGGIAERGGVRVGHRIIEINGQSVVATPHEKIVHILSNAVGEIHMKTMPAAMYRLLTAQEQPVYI

On to `CCOc1cc(/C=C(/C#N)C(=O)Nc2ccc(OC)cc2)ccc1OCc1ccc(C(=O)O)cc1`, for which the IC50 in experiment [1] is 13.1 µM (active); in experiment [2], > 50 µM (inactive); in experiment [3], 6.48 µM (active); in experiment [4], 9.46 µM (active).
For orientation: AC50 means the concentration giving half of the maximal activity seen. `O=C(/C=C/c1ccc(Cl)c([N+](=O)[O-])c1)c1ccc(O)cc1`: the AC50 in experiment [5] is 4.36 µM (active); in experiment [6], 17.4 µM (active). For the same molecule, the IC50 in experiment [7] was 7.04 µM (active).
Consider `C=Cc1ccc(C(=O)N2CCCC(CCC(=O)N3CCN(c4ccccn4)CC3)C2)cc1` (stereo unspecified), for which the IC50 in [1] is 8.01 µM (active); in experiment [2], > 50 µM (inactive); in [8] it was 22.2 µM (active); in experiment [9], > 66.6 µM (inactive); in [10], 20.8 µM (inactive).
What is called CC50 is the concentration at which the toxic effect on the cells reaches its halfway point. Turning to `COc1ccc(Br)cc1CN1CCN(Cc2c[nH]c3ccccc23)CC1`, the AC50 in experiment [11] is 6.6 µM (active). In [12], the CC50 is 79.4 µM (active). Moreover, in experiment [13], the IC50 is 86 µM (active).
Take `NN=C1C(Cl)=C(Cl)C(Cl)=C1Cl`: the IC50 in [14] is 1.45 µM (active); in [15], > 80 µM (inactive); in [16], 1.99 µM (active); in experiment [3], 7.19 µM (active); in [4], 38.7 µM (inactive). Moreover, the CC50 in experiment [17] is > 40 µM (active).
As for `C[C@@H]1CN([C@H](C)CO)S(=O)(=O)c2ccc(C#CC3(O)CCCC3)cc2O[C@@H]1CN(C)C(=O)c1cccnc1`, the AC50 in experiment [18] is 9.98 µM (active).
In the case of `COCC(=O)N(C)C[C@H]1Oc2cc(C#Cc3cccnc3)ccc2S(=O)(=O)N([C@@H](C)CO)C[C@H]1C`, the AC50 in [18] is 1.09 µM (active).
`O=C(N/N=C/c1ccc(OC(=O)c2ccc3c(c2)OCO3)cc1)c1cncc(Br)c1`: the IC50 in [8] is 1.8 µM (active); in experiment [3] it was 6.29 µM (active); in experiment [4], 1.82 µM (active).
